Structures are written as SMILES. Entries after “also recorded” stand apart in the source; their conditions may differ. Where only a bound is given, the exact number is not on record here.

As usually defined, the solubility is how much of the substance goes into solution per volume. A word on the Cmax: it is the peak of the concentration-time curve.

Series [1] concerns patients with mild to moderate Alzheimer's disease. Put plainly: Phase IIa structural MRI (regions of interest and voxel-based whole brain analysis). The format is in vivo, human. The procedure:
Volumetric MRI is conduction at the first and final visits. Volumetric analyses of the whole brain, hippocampus and other regions of interest are conducted. Measures of regional volumes as determined by MRI are regarded as standard measures of brain degeneration that are known to occur in AD. Volumes of the lateral ventricles are also assessed. Increasing ventricular volume is a marker for a diffuse increase in brain atrophy. […] The following Regions of interest were investigated in the ITT population: MRI Volume of the lateral ventricles in mm3—longitudinal stream change, MRI Average volume of the hippocampus in mm3—longitudinal stream change, MRI Average Volume of the entorhinal cortex in mm3—longitudinal stream change, MRI Total brain volume in mm3 change. Baseline and final Visit MRI scan were used to measure interval changes in volumes. Various cortical regions such as the Cingulate cortex were also assessed. […] The identified brain regions are similar in distribution to those having been previously identified to be particularly vulnerable to degeneration in AD.
For this analysis, the drug treatment group contains subject treated with either 200 or 400 mg doses. […] FIGS. 46A-46C show group x time interaction patterns using T1-weighted structural MRI. Contrast estimate plots show the magnitude and direction of the interaction effects observed in the flexible factorial GLM. […] Therefore, if the actual observed ratio of t-values is close to equivalent in the input map at a given p and k threshold, the MCS ratio and p-value will tend to support the null hypothesis of no drug effect. […] Increased thickness is similar to increased volume and means less degeneration. Here increased gyrification means increased atrophy.

A short description of series [2]: Aqueous solubility of the drug substance. The format is physicochemical. As to conditions: water. As to the method: Preparation of the clinical dosage form consists of a dry fill of the drug substance into gelatin capsules with no excipients. For the Phase II study, capsules with the salt of Formula (II)(200 mg or 400 mg, free base weight) are machine-filled and packaged in blister strips with aluminum foil backing, which are stored in cardboard boxes. Matching placebo capsules are also available in the same packaging.

The test system of a further series is Aβ42, Aβ40. Put plainly: Phase IIa CSF AD core biomarkers Aβ42 and Aβ40. The format is in vivo, human. From the text: CSF samples were obtained at screening Visit and final Visit via lumbar puncture to determine levels of tau, p-tau, Aβ40, Aβ42 and AChE activity as an initial set of CSF biomarkers. Aliquots of CSF were made available for emerging CSF biomarker methods such as measurement of additional biomarkers including neurofilaments light chain, neurogranin, SNAP-25, synaptotagmin, YKL-40, TREM2, tau oligomers and for measurement of drug level in selected patients based on the time period between last dose of drug and CSF sampling (FIG. 25 and FIG. 58).
Baseline CSF samples are obtained prior to administration via lumbar puncture. These samples are used to determine levels of tau, p-tau, Aβ40, Aβ42, AChE, neurofilament light chain, SNAP-25, synaptotagmin-1, neurogranin, sTREM, and YKL-40. Aliquots of CSF are also made available for emerging CSF biomarker methods such as measurement of tau oligomers and for measurement of drug level in selected patients based on time period between last dose of the salt of Formula (II) and CSF sampling. […] Many of these biomarkers can also be measured in blood or plasma. The change in values over the time period from pre-treatment to post-treatment are of particular importance. […] Absolute levels at single time points of neurofilament light chain, SNAP-25, synaptotagmin-1, neurogranin, sTREM, and YKL-40 in CSF or blood or plasma are of less value given differences in assay techniques and wide variation in absolute levels within normal subjects and within and across AD subjects. In contrast, absolute levels of Aβ42 and 40 at baseline are useful biomarkers indicating the presence of amyloid pathology as low levels of Aβ42 and 40 at a given time point are consistent with amyloid pathology.

Series [3] can be described thus: Phase 1 SAD/MAD pharmacokinetics. It counts as in vivo. As to conditions: in vivo. The text has this:
The phase 1 study was placebo controlled and double blinded and included 52 subjects in SAD studies and 20 subjects in MAD studies.

A short description of series [4]: Phase I (1b) cerebrospinal fluid (CSF) levels. It counts as in vivo. Conditions: human, day 10, 600 mg b.i.d. oral, 8 subjects, read-out: Cmax in cerebrospinal fluid (CSF), arithmetic mean.

Take `CC[C@H](C)[C@H](N)C(=O)NCCN1CCOCC1` [LM11A-31-BHS, Tris[(2S,3S)-2-amino-3-methyl-N-(2-morpholinoethyl)pentanamide] tetra(monohydrogensulfate), monosulfate]: in series [1] (anterior cingulate region area 33 prime), the “cortical thickness and gyrification” value was “drug effect on improving cortical thickness or decreasing gyrification”. Further, the “hippocampal (HC) volume, sMRI” value in series [1] (combined drug group, 6-month period, p=0.006) is reported as “significant increase in HC volume”. Moreover, the “volume of the dentate gyrus” value in series [1] (drug group, humans) was “promotes increased volume of the dentate gyrus; also recorded: significant increase in the volume of the dentate gyrus”. The “voxel-wise T1-weighted structural MRI, loss of volume, dose analysis” value in series [1] (flexible factorial GLM, p<0.05 and cluster size >100) is “significant effect at both the 200 and 400 mg doses in slowing loss of volume”. Besides, the “volume loss in voxel-based whole brain MRI, drug versus placebo” value in series [1] (treatment period) is listed as “slow volume loss in brain regions known to be particularly vulnerable to degeneration in AD”. Also, in series [1] (younger <72 years, older >=72 years), the “voxel-wise structural MRI volume loss, age analysis” value was “significant drug effect in both age groups”. The compound also yielded a solubility in series [2] greater than 30 mg/mL. In the series on Aβ42, Aβ40 (combined drug group, 26 weeks, p=0.003), the “CSF Ab 42 change in the drug group” value was “went down by a significant amount”. In the series with Aβ42, Aβ40 (combined drug group, p=0.03), the “CSF Ab 42, difference between placebo and drug” value was “significant”. Moreover, the “effect on levels of Aβ42 and 40” value in the series with Aβ42, Aβ40 (daily treatment, CSF) is “ability to lower levels of Aβ42 and 40”. In series [3] (human), the food effect entry is on record as “fed subjects having a higher LM11A-31 parent exposure than fasted subjects” and the “time to reach steady state upon multiple dosing” value was “approximately 5 days post dose”. Also, in series [3], the “gender difference in exposure” value is given as “female subjects having a greater exposure than males”. For the same compound, the “pharmacokinetics after single oral doses” value in series [3] (po) is “linear pharmacokinetics”. For the same compound, the Cmax in series [4] worked out at 56 ng/mL.

The values above are taken from US20240398822A1, “METHODS AND COMPOSITIONS FOR TREATING AND MANAGING ALZHEIMER'S DISEASE” (Pharmatrophix, Inc., priority 2021, published 2024).
